In patent US20190070170A1, “METHOD OF S[…]-1” (Macau University of Science and Technology, priority 2017, published 2019):

Test system: COX-1
Assay: COX-1 protein in microsomes of inflamed paw of carrageenan-induced rats (western blotting)
Type: in vivo, SD rats
Conditions: SIN or DEX pretreatment i.p.
Protocol: The model of carrageenan-induced paw edema was performed with SD rats (150-200 g). The carrageenan-induced paw edema was performed in SD rats (150-200 g) by subcutaneously injection λ-carrageenan as described in Liu J. et al., Pharmacological research 2016, 111 and Luo P. et al., J. Pharmacol. Exp. Ther. 2010. Briefly, rats were fasted for 12 h before experiment and intraperitoneal injection was performed with three different doses (25, 50 and 100 mg/kg) of SIN, or DEX (reference drug, 2 mg/kg) or 0.9% saline (Vehicle and Normal group rats), at 2 h prior to the induction of paw edema. […] Paw volumes (ml) of right hind foot of each rat were measured using a plethysmometer (type 7150; UGO Basile, Comerio, Italy) at 0 h (before carrageenan injection) and then again at 1, 2, 3 and 4 h after the injection of carrageenan or saline. The percentage of paw edema of the right hind paws of all groups were calculated at different time points by the following equation: […]
Whole-cell and nuclear proteins were obtained using RIPA lysis buffer (CST, Boston, Mass., USA) and Nuclear and Cytoplasmic Extraction Reagents kit from Thermo Scientific (Asheville, N.C., USA), respectively. […] The levels of protein expression were measured using Odyssey v3.0 software from Li-COR (Lincoln, Nebr., USA).

Compound: COC1=C[C@@H]2[C@@H]3Cc4ccc(OC)c(O)c4[C@]2(CCN3C)CC1=O [SIN, sinomenine]
- COX-1 level in inflamed paw: did not produce observable effects
